Counter-ions that a name gives are not always drawn.
Tested on: BxPC-3 cells
Assay: Cellular proliferation assay in BxPC-3 cells (Cell-Titer Glo, 120 h)
Assay type: cell-based
Conditions: Homo sapiens, 120 h incubation, Cell-Titer Glo luminescence
Description: Compounds are tested for their ability to impair cancer cell proliferation and/or induce cell death. For cellular proliferation studies, cultured cells are treated with the test compound for 24-120 hours. After compound treatment, cell proliferation is assessed by using methods including, but not limited to, Cell-Titer-Glo® (Promega), Alamar Blue, LIVE/DEAD® (ThermoFisher), BrdU incorporation, and live-cell imaging.
The cancer lines used include, but are not limited to, PANC-1, MiaPaCa-2, BxPC-3 (pancreatic cancer), RT112 (bladder cancer), MCF-7 (breast cancer), and A549 (non-small cell lung cancer). Gemcitabine Hydrochloride serves as a control for activity.
Protocol for the Cellular Proliferation Assay in BxPC-3 Cells
BxPC-3 (pancreatic adenocarcinoma) cell line was purchased from the American Type Culture Collection (Catalog #CRL-1687) and grown in RPMI-1640 medium (e.g. Corning #10-040-CV) with 10% Heat Inactivated Fetal Calf Serum at 37° C. and 5% CO2 (as recommended by the ATCC).
Cultures were grown in […] plates to 80% confluence, and cells were trypsinized to a single-cell suspension. Cells were then resuspended in growth medium to a density of […]. They were then plated into 96-well assay plates (Corning #3917) in a volume of 100 ul/well (2,500 cells/well). Cells were allowed to adhere to plates for 24 h at 37° C. and 5% CO2). Compounds were then added to the wells using an […] serial dilution scheme (over 9 dilutions, generally ranging from 30 μM-30 pM), and the cells were incubated for an additional 120 hours. After 120 h, 90 ul of Cell-Titer Glo reagent (Promega #G7572) was added, and the plates were read using a luminescence counter (e.g., BioTek Synergy HTX at 100 ms read time).

SMILES | EC50 [nM]
CCCCCCCCCCCCCCCCCCCCOP1(=O)OC[C@H]2O[C@@H](n3ccc(N)nc3=O)C(F)(F)[C@@H]2O1 (single isomer, unassigned) [Compound 45A] | < 1000
CCCCCCCCCCCCCCCCCCCCCCOP1(=O)OC[C@H]2O[C@@H](n3ccc(N)nc3=O)C(F)(F)[C@@H]2O1 (single isomer, unassigned) [Compound 46A] | 1000 to 25000
CCCCCCCCC(=O)O[C@@H]1[C@@H](COP2(=O)OCc3ccccc3O2)O[C@@H](n2ccc(N)nc2=O)C1(F)F (stereo partly drawn) [Compound 2, (2R,3R,5R)-5-(4-amino-2-oxopyrimidin-1(2H)-yl)-4,4-difluoro-2-(((2-oxido-4H-benzo[d][1,3,2]dioxaphosphinin-2-yl)oxy)methyl)tetrahydrofuran-3-yl nonanoate] | < 1
CC(C)OP(=O)(OC[C@H]1O[C@@H](n2ccc(N)nc2=O)C(F)(F)[C@@H]1OC(=O)C(C)C)OC(C)C [Compound 16, (2R,3R,5R)-5-(4-amino-2-oxopyrimidin-1(2H)-(((diisopropoxyphosphoryl)oxy)methyl)-4,4-difluorotetrahydrofuran-3-yl isobutyrate] | < 1000
CCCOP(=O)(OCCC)OC[C@H]1O[C@@H](n2ccc(N)nc2=O)C(F)(F)[C@@H]1OC(=O)CCC [Compound 17, (2R,3R,5R)-5-(4-amino-2-oxopyrimidin-1(2H)-(((dipropoxyphosphoryl)oxy)methyl)-4,4-difluorotetrahydrofuran-3-yl butyrate] | 1000 to 25000
CCCCCOP(=O)(OCCCCC)OC[C@H]1O[C@@H](n2ccc(N)nc2=O)C(F)(F)[C@@H]1OC(=O)CCCCC [Compound 18, (2R,3R,5R)-5-(4-amino-2-oxopyrimidin-1(2H)-yl)-2-(((bis(pentyloxy)phosphoryl)oxy)methyl)-4,4-difluorotetrahydrofuran-3-yl hexanoate] | < 1000
CCCCCCCOP(=O)(OCCCCCCC)OC[C@H]1O[C@@H](n2ccc(N)nc2=O)C(F)(F)[C@@H]1OC(=O)CCCCCCC [Compound 19, (2R,3R,5R)-5-(4-amino-2-oxopyrimidin-1(2H)-yl)-2-(((bis(heptyloxy)phosphoryl)oxy)methyl)-4,4-difluorotetrahydrofuran-3-yl octanoate] | < 1000
CCCCCCCCCCCCCCCCC(=O)O[C@@H]1[C@@H](COP(=O)(OCCCCCCCC)OCCCCCCCC)O[C@@H](n2ccc(N)nc2=O)C1(F)F [Compound 20, (2R,3R,5R)-5-(4-amino-2-oxopyrimidin-1(2H)-yl)-2-(((bis(octyloxy)phosphoryl)oxy)methyl)-4,4-difluorotetrahydrofuran-3-yl heptadecanoate] | 1000 to 25000
CCCCCCCCCCOP(=O)(OCCCCCCCCCC)OC[C@H]1O[C@@H](n2ccc(N)nc2=O)C(F)(F)[C@@H]1OC(=O)CCCCCCCCCC [Compound 21, (2R,3R,5R)-5-(4-amino-2-oxopyrimidin-1(2H)-yl)-2-(((bis(decyloxy)phosphoryl)oxy)methyl)-4,4-difluorotetrahydrofuran-3-yl undecanoate] | 1000 to 25000
CCCCCCCCCCCCOP(=O)(OCCCCCCCCCCCC)OC[C@H]1O[C@@H](n2ccc(N)nc2=O)C(F)(F)[C@@H]1OC(=O)CCCCCCCCCCCC [Compound 22, (2R,3R,5R)-5-(4-amino-2-oxopyrimidin-1(2H)-yl)-2-(((bis(dodecyloxy)phosphoryl)oxy)methyl)-4,4-difluorotetrahydrofuran-3-yl tridecanoate] | 1000 to 25000
CCCCCCCCCCCCCCOP(=O)(OCCCCCCCCCCCCCC)OC[C@H]1O[C@@H](n2ccc(N)nc2=O)C(F)(F)[C@@H]1OC(=O)CCCCCCCCCCCCCC [Compound 23, (2R,3R,5R)-5-(4-amino-2-oxopyrimidin-1(2H)-yl)-2-(((bis(tetradecyloxy)phosphoryl)oxy)methyl)-4,4-difluorotetrahydrofuran-3-yl pentadecanoate] | 1000 to 25000
Nc1ccn([C@@H]2O[C@H](COP(=O)(OC3CCCCC3)OC3CCCCC3)[C@@H](OC(=O)C3CCCCC3)C2(F)F)c(=O)n1 [Compound 24, (2R,3R,5R)-5-(4-amino-2-oxopyrimidin-1(2H)-(((bis(cyclohexyloxy)phosphoryl)oxy)methyl)-4,4-difluorotetrahydrofuran-3-yl cyclohexanecarboxylate] | 1000 to 25000
Nc1ccn([C@@H]2O[C@H](COP(=O)(Oc3ccccc3)Oc3ccccc3)[C@@H](OC(=O)c3ccccc3)C2(F)F)c(=O)n1 [Compound 25, (2R,3R,5R)-5-(4-amino-2-oxopyrimidin-1(2H)-yl)-2-(((diphenoxyphosphoryl)oxy)methyl)-4,4-difluorotetrahydrofuran-3-yl benzoate] | 1000 to 25000
CCCCCCCCCCCCC(=O)O[C@@H]1[C@@H](COP2(=O)OCc3ccccc3O2)O[C@@H](n2ccc(N)nc2=O)C1(F)F (stereo partly drawn) [Compound 28, (2R,3R,5R)-5-(4-amino-2-oxopyrimidin-1(2H)-yl)-4,4-difluoro-2-(((2-oxido-4H-benzo[d][1,3,2]dioxaphosphinin-2-yl)oxy)methyl)tetrahydrofuran-3-yl tridecanoate] | < 1
CCCCCCCCCCCCCCC(=O)O[C@@H]1[C@@H](COP2(=O)OCc3ccccc3O2)O[C@@H](n2ccc(N)nc2=O)C1(F)F (stereo partly drawn) [Compound 29, (2R,3R,5R)-5-(4-amino-2-oxopyrimidin-1(2H)-yl)-4,4-difluoro-2-(((2-oxido-4H-benzo[d][1,3,2]dioxaphosphinin-2-yl)oxy)methyl)tetrahydrofuran-3-yl pentadecanoate] | < 1
CCCCCCCCCCCCCCCCC(=O)O[C@@H]1[C@@H](COP2(=O)OCc3ccccc3O2)O[C@@H](n2ccc(N)nc2=O)C1(F)F (stereo partly drawn) [Compound 30, (2R,3R,5R)-5-(4-amino-2-oxopyrimidin-1(2H)-yl)-4,4-difluoro-2-(((2-oxido-4H-benzo[d][1,3,2]dioxaphosphinin-2-yl)oxy)methyl)tetrahydrofuran-3-yl heptadecanoate] | < 1
CCCCCCCCCCCCCCCCC(=O)O[C@@H]1[C@@H](COP2(=O)OCc3cccc(C)c3O2)O[C@@H](n2ccc(N)nc2=O)C1(F)F (stereo partly drawn) [Compound 31, (2R,3R,5R)-5-(4-amino-2-oxopyrimidin-1(2H)-yl)-4,4-difluoro-2-(((8-methyl-2-oxido-4H-benzo[d][1,3,2]dioxaphosphinin-2-yl)oxy)methyl)tetrahydrofuran-3-yl heptadecanoate] | < 1
CCCCCCCCCCCCCCCCC(=O)O[C@@H]1[C@@H](COP2(=O)OCc3c(C)cccc3O2)O[C@@H](n2ccc(N)nc2=O)C1(F)F (stereo partly drawn) [Compound 32, (2R,3R,5R)-5-(4-amino-2-oxopyrimidin-1(2H)-yl)-4,4-difluoro-2-(((5-methyl-2-oxido-4H-benzo[d][1,3,2]dioxaphosphinin-2-yl)oxy)methyl)tetrahydrofuran-3-yl heptadecanoate] | < 1
Nc1ccn([C@@H]2O[C@H](CO)[C@@H](O)C2(F)F)c(=O)n1 [Gemcitabine Hydrochloride, 2′,2′-difluoro-2′-deoxycytidine, reference compound] | 1 to 100

The remaining lines, values ahead:

EC50 [nM] | SMILES
< 1 | CCCCCCCCCCOP1(=O)OC[C@H]2O[C@@H](n3ccc(N)nc3=O)C(F)(F)[C@@H]2O1 (single isomer, unassigned) [Compound 42A]
1 to 100 | CCCCCCCCCCCCCCCCOP1(=O)OC[C@H]2O[C@@H](n3ccc(N)nc3=O)C(F)(F)[C@@H]2O1 (single isomer, unassigned) [Compound 43A]
1 to 100 | CCCCCCCCCCCCCCCCCCOP1(=O)OC[C@H]2O[C@@H](n3ccc(N)nc3=O)C(F)(F)[C@@H]2O1 (single isomer, unassigned) [Compound 44A]
1 to 100 | CCCCCCCCC(=O)O[C@@H]1[C@@H](COP(=O)(OCCCCCC)OCCCCCC)O[C@@H](n2ccc(N)nc2=O)C1(F)F [Compound 1, (2R,3R,5R)-5-(4-amino-2-oxopyrimidin-1(2H)-yl)-2-(((bis(hexyloxy)phosphoryl)oxy)methyl)-4,4-difluorotetrahydrofuran-3-yl nonanoate]
< 1 | CCCCCCCCC(=O)O[C@@H]1[C@@H](COP(=O)(OCOC(=O)C(C)(C)C)OCOC(=O)C(C)(C)C)O[C@@H](n2ccc(N)nc2=O)C1(F)F [Compound 3]
< 1 | CCCCCCCCCCCCC(=O)O[C@@H]1[C@@H](COP(=O)(OCOC(=O)C(C)(C)C)OCOC(=O)C(C)(C)C)O[C@@H](n2ccc(N)nc2=O)C1(F)F [Compound 33]
< 1 | CCCCCCCCCCCCCCC(=O)O[C@@H]1[C@@H](COP(=O)(OCOC(=O)C(C)(C)C)OCOC(=O)C(C)(C)C)O[C@@H](n2ccc(N)nc2=O)C1(F)F [Compound 34]
< 1 | CCCCCCCCCCCCCCCCC(=O)O[C@@H]1[C@@H](COP(=O)(OCOC(=O)C(C)(C)C)OCOC(=O)C(C)(C)C)O[C@@H](n2ccc(N)nc2=O)C1(F)F [Compound 35]
< 1 | CCCCCCCCCCCCCCCCCCC(=O)O[C@@H]1[C@@H](COP(=O)(OCOC(=O)C(C)(C)C)OCOC(=O)C(C)(C)C)O[C@@H](n2ccc(N)nc2=O)C1(F)F [Compound 36]

From patent US11306111B2, “Organophosphate derivatives” (January Therapeutics, Inc., priority 2017, dated 2022)
